# Active and inactive are the calls of the source. The calls are words filed in the database; no cut-off is given here.
# Biological target: Glycoprotein (Vesicular stomatitis Indiana virus (strain San Juan) (VSIV)) (UniProt P03522)
# Assay: Inhibition of glycoprotein in pseudotyped Vesicular stomatitis virus infected in 293T/ACE2 cells assessed as reduction in viral entry at 10 uM preincubated with virus for 1 hr followed by cell infection and measured after 48 hrs by bright-glo luciferase reporter gene assay
# Format: cell-based
# Details: time 49.0 hrs
# Glycoprotein (Vesicular stomatitis Indiana virus (strain San Juan) (VSIV)), sequence (P03522 whole entry): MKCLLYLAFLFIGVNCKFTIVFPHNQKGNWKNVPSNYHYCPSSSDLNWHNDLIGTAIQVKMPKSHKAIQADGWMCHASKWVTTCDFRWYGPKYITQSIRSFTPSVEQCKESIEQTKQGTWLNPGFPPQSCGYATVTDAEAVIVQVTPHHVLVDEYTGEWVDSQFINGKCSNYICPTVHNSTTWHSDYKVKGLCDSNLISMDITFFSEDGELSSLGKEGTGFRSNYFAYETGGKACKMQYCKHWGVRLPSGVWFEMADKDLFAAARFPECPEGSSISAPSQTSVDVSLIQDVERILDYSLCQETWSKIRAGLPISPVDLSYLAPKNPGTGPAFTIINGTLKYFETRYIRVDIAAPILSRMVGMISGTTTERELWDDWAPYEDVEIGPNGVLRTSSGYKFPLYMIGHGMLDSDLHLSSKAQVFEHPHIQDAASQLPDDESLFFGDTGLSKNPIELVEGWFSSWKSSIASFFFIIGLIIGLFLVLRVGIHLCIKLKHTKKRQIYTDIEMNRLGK
row,SMILES,inhibition
1,C=C(C)[C@@H]1CC[C@]2(C(=O)OC)CC[C@]3(C)[C@H](CC[C@@H]4[C@@]5(C)CC[C@H](OC(=O)CCCNC(=O)CC[C@@H](C)[C@H]6CC[C@H]7[C@@H]8[C@H](O)[C@H](CC)[C@@H]9C[C@H](O)CC[C@]9(C)[C@H]8CC[C@]67C)C(C)(C)[C@@H]5CC[C@]43C)[C@@H]12,inactive
2,CC[C@H]1[C@@H](O)[C@@H]2[C@H](CC[C@]3(C)[C@@H]([C@H](C)CCC(=O)NCCCCCCn4cc(CCCCC(=O)O[C@H]5CC[C@H]6[C@@H](CC[C@]7(C)[C@@H]6C(=O)C=C6[C@@H]8C[C@@](C)(C(=O)OC)CC[C@]8(C)CC[C@]67C)C5(C)C)nn4)CC[C@@H]23)[C@@]2(C)CC[C@@H](O)C[C@@H]12,inactive
3,C=C(C)[C@@H]1CC[C@]2(C(=O)OC)CC[C@]3(C)[C@H](CC[C@@H]4[C@@]5(C)CC[C@H](OC(=O)CCCCCCCCNC(=O)CC[C@@H](C)[C@H]6CC[C@H]7[C@@H]8[C@H](O)[C@H](CC)[C@@H]9C[C@H](O)CC[C@]9(C)[C@H]8CC[C@]67C)C(C)(C)[C@@H]5CC[C@]43C)[C@@H]12,inactive
4,C=C(C)[C@@H]1CC[C@]2(C(=O)OC)CC[C@@]3(C)[C@@H]4CC[C@@H]5[C@H](CC[C@H](OC(=O)CCCCc6cn(CCCCCCNC(=O)CC[C@@H](C)[C@H]7CC[C@H]8[C@@H]9[C@H](O)[C@H](CC)[C@@H]%10C[C@H](O)CC[C@]%10(C)[C@H]9CC[C@]78C)nn6)C5(C)C)[C@H]4CC[C@@H]3[C@@H]12,inactive
